The record followed here is BindingDB's records for patent US20240083908 (Modulus Discovery, 2024).

This experiment deals with Poly(ADP-ribose) glycohydrolase (Homo sapiens, UniProt Q86W56). Kind of experiment: PARG Activity Assay. The protocol: PARG Activity Assay was performed in Streptavidin-coated 96-well plates. […] The substrate solution was added to the 96-well plate at the volume of 200 micro liter per well and incubated for 3 hours at room temperature. After the incubation, the substrate solution was discarded and assay plate was washed 4 times with 220 micro liter of PBS containing 0.1% Tween20 (PBST). […] The diluted enzyme solution was pre-incubated with compounds for 1 hour at room temperature in a 96-well plate and transferred 100 micro liter per well to the poly (ADP-ribose) substrate-coated assay plate. The plate was incubated for 1 hour at 25° C. and then washed 4 times with 220 micro liters of PBST. For the detection of non-digested poly (ADP-ribose) polymer on the plate, mouse anti-poly (ADP-ribose) antibody diluted with 0.2% BSA containing PBS was added 100 micro liters per well and incubated 1 hour at room temperature. Plate was washed 4 times with TBST and 100 micro liter of HRP-labeled anti-mouse Ig antibody was added to the wells. Plate was incubated for 30 minutes at room temperature and then washed 4 times with PBST. For the detection 100 micro liters of TMB substrate solution was added to the wells. After sufficient color development, reaction was stopped by addition of 50 micro liter of 0.2 M […].
Chain of Poly(ADP-ribose) glycohydrolase (Q86W56 whole entry): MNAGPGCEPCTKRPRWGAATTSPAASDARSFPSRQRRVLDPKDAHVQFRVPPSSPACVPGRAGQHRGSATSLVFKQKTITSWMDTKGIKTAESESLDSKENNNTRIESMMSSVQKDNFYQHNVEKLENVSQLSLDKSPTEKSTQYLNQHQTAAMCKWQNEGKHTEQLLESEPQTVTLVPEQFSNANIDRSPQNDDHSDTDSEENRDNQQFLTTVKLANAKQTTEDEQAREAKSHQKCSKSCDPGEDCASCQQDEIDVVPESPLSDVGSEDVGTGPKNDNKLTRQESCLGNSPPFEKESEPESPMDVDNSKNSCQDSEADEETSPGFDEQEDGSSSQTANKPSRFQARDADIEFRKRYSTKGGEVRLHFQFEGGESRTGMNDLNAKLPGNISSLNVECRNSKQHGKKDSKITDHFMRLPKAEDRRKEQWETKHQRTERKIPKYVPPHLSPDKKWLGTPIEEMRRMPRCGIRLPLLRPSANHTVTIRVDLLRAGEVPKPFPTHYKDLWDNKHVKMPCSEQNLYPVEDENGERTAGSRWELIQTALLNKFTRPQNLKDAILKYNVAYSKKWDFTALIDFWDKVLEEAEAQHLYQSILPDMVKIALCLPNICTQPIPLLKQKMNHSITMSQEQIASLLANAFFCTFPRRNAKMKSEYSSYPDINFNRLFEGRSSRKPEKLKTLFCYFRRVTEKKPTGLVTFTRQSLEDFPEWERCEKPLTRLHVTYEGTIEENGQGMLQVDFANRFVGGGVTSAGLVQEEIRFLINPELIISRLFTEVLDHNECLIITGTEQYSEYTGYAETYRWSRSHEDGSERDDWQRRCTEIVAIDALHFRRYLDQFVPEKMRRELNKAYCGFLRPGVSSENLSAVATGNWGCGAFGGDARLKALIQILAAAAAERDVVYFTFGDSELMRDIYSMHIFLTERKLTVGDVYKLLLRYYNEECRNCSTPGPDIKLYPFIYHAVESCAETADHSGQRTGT

The IC50 is the midpoint of a concentration-inhibition curve. Low values mean higher potency, high ones lower potency. Consider `Cc1ncc(Cn2c(=O)[nH]c3sc(S(=O)(=O)NC4(C)CC4)cc3c2=O)s1` [US20240083908, Example 1], for which the IC50 came out at 22900 nM.

Take `Cc1ncc(Cn2c(=O)c3cc(S(=O)(=O)NC4(C)CC4)sc3n(CCCN(C)C)c2=O)s1` [US20240083908, Example 8]: the half-maximal inhibitory concentration (IC50) turned out to be 630 nM.

Take `Cc1nc(C)c(Cn2c(=O)n(Cc3cnn(C)c3)c(=O)c3cc(S(=O)(=O)NC4(C)CC4)sc32)s1` [US20240083908, Example 25]: 13 nM corresponded to half-maximal inhibition (IC50).

For the compound `Cn1cc(Cn2c(=O)c3cc(S(=O)(=O)NC4(C)CC4)sc3n(Cc3ccc4c(c3)COC4)c2=O)cn1` [US20240083908, Example 28], the IC50 was 10 nM.

In turn, `Cn1cc(Cn2c(=O)c3cc(S(=O)(=O)NC4(C)CC4)sc3n(Cc3ccc4cn[nH]c4c3)c2=O)cn1` [US20240083908, Example 36] registered an IC50 of 5.3 nM.

As to `Cn1cc(Cn2c(=O)c3cc(S(=O)(=O)NC4(C)CC4)sc3n(Cc3ccc4cncn4c3)c2=O)cn1` [US20240083908, Example 40], the IC50 came to 4.1 nM.

Consider `COc1ccc(Cn2c(=O)n(Cc3cnn(C)c3)c(=O)c3cc(S(=O)(=O)NC4(C)CC4)sc32)cc1` [US20240083908, Example 50], for which the midpoint of inhibition, the IC50, lay at 40 nM.

Compound `Cn1cc(Cn2c(=O)c3cc(S(=O)(=O)NC4(C)CC4)sc3n(Cc3cnn(CCO)c3)c2=O)cn1` [US20240083908, Example 57] returned an IC50 of 20 nM.

`COCc1cc2cc(Cn3c(=O)n(Cc4cnn(C)c4)c(=O)c4cc(S(=O)(=O)NC5(C)CC5)sc43)ccc2o1` [US20240083908, Example 63] gave an IC50 of 20 nM.

`Cn1cc(Cn2c(=O)c3cc(S(=O)(=O)NC4(C)CC4)sc3n(Cc3ccc4oc(CO)cc4c3)c2=O)cn1` [US20240083908, Example 64] gave an IC50 of 15 nM.

With `Cn1cc(Cn2c(=O)c3cc(S(=O)(=O)NC4(C)CC4)sc3n(Cc3ccc(OC4CC4)cc3)c2=O)cn1` [US20240083908, Example 68], the concentration for half-maximal inhibition (IC50) stood at 63 nM.

In turn, `CNCCN(C)c1ccc(Cn2c(=O)n(Cc3cnn(C)c3)c(=O)c3cc(S(=O)(=O)NC4(C)CC4)sc32)cc1F` [US20240083908, Example 77] registered a 50% inhibitory concentration (IC50) of 70 nM.

In the case of `CN(C)CCN(C)c1ccc(Cn2c(=O)n(Cc3cnn(C)c3)c(=O)c3cc(S(=O)(=O)NC4(C)CC4)sc32)cc1F` [US20240083908, Example 78], half-maximal inhibition (IC50) was put at 111 nM.

Turning to `Cn1cc(Cn2c(=O)c3cc(S(=O)(=O)NC4(C)CC4)sc3n(C3CCNCC3)c2=O)cn1` [US20240083908, Example 91], the concentration for half-maximal inhibition (IC50) worked out at 270 nM.

In turn, `CC(=O)N1CCC(n2c(=O)n(Cc3cnn(C)c3)c(=O)c3cc(S(=O)(=O)NC4(C)CC4)sc32)CC1` [US20240083908, Example 92] gave a 50% inhibitory concentration (IC50) of 230 nM.

For the compound `CNCCC(=O)N1CCC(n2c(=O)n(Cc3cnn(C)c3)c(=O)c3cc(S(=O)(=O)NC4(C)CC4)sc32)CC1` [US20240083908, Example 95], 320 nM corresponded to half-maximal inhibition (IC50).

In turn, `CN1CCC(Cn2c(=O)n(Cc3cnn(C)c3)c(=O)c3cc(S(=O)(=O)NC4(C)CC4)sc32)CC1` [US20240083908, Example 98] displayed a concentration for half-maximal inhibition (IC50) of 5940 nM.

Take `Cn1cc(Cn2c(=O)c3cc(S(=O)(=O)NC4(C)CC4)sc3n(CC3CCN(CCO)CC3)c2=O)cn1` [US20240083908, Example 99]: half-maximal inhibition (IC50) required 500 nM.

`Cn1cc(Cn2c(=O)c3cc(S(=O)(=O)NC4(C#N)CC4)sc3n(Cc3ccc4c(c3)COC4)c2=O)cn1` [US20240083908, Example 100] had an IC50 of 42 nM.

Regarding `Cc1nc(C)c(Cn2c(=O)n(Cc3cnn(CCO)c3)c(=O)c3cc(S(=O)(=O)NC4(C)CC4)sc32)s1` [US20240083908, Example 104b], the half-maximal inhibitory concentration (IC50) was 120 nM.

For the compound `Cc1nc(C)c(Cn2c(=O)n(Cc3ccc(Cl)nc3)c(=O)c3cc(S(=O)(=O)NC4(C)CC4)sc32)s1` [US20240083908, Example 105], the IC50 came out at 50 nM.

As for `CC1(NS(=O)(=O)c2cc3c(=O)n(Cc4nc5c(s4)CCCC5)c(=O)n(Cc4ccc5c(c4)COC5)c3s2)CC1` [US20240083908, Example 106], half-maximal inhibition (IC50) was put at 990 nM.

Take `Cc1ncc(Cn2c(=O)c3cc(S(=O)(=O)NC4(C)CC4)sc3n(Cc3cc(C(C)C)nn3C)c2=O)s1` [US20240083908, Example 107]: inhibition was half-maximal at 70 nM (IC50).

For `Cn1cc(Cn2c(=O)c3cc(S(=O)(=O)NC4(C)CC4)sc3n(Cc3cnc4c(c3)COC4)c2=O)cn1` [US20240083908, Example 108], the IC50 turned out to be 4 nM.

For the compound `Cn1cc(Cn2c(=O)c3cc(S(=O)(=O)NC4(C)CC4)sc3n(Cc3cc4c(cc3F)COC4)c2=O)cn1` [US20240083908, Example 110], the half-maximal inhibitory concentration (IC50) was found to be 17 nM.

For the compound `COc1cc2c(cc1Cn1c(=O)n(Cc3cnn(C)c3)c(=O)c3cc(S(=O)(=O)NC4(C)CC4)sc31)COC2` [US20240083908, Example 111], the IC50 was 120 nM.

`COc1cc(Cn2c(=O)n(Cc3cnn(C)c3)c(=O)c3cc(S(=O)(=O)NC4(C)CC4)sc32)ccc1F` [US20240083908, Example 121] displayed a half-inhibitory concentration (IC50) of 20 nM.

Compound `Cn1cc(Cn2c(=O)c3cc(S(=O)(=O)NC4(C)CC4)sc3n(Cc3ccc4c(c3)CC(=O)N4)c2=O)cn1` [US20240083908, Example 130] came in with a half-inhibitory concentration (IC50) of 3 nM.

`Cn1cc(Cn2c(=O)c3cc(S(=O)(=O)NC4(C)CC4)sc3n(-c3ccc(F)cc3)c2=O)cn1` [US20240083908, Example 136] had a 50% inhibitory concentration (IC50) of 860 nM.
